# Laboratory results published in patent US7220576B2, “Methods and compositions for protein expression and purification” (Lifesensors, Inc., priority 2002, dated 2007).
# Where “and” joins values, the source holds several entries; their conditions need not be identical. Equal entries are not always repeated. Entries after “also recorded” stand apart in the source; their conditions may differ. Non-standard residues stand in square brackets, D forms with d. Residues, ends and D or L forms follow the SMILES beside them. *: point of attachment. Sta = CC(C)C[C@H](N)[C@@H](O)CC(=O)O; Isovaleryl = CC(C)CC(=O)*
# Assays:
# [1] = molecular target: T1, Ulp1 Hydrolase (Saccharomyces cerevisiae, UniProt Q02724); assay: In vitro Ulp1 cleavage of His6SUMO-GFP under various additives/conditions; type: biochemical, yeast; conditions: for Ulp1 activity remaining: 0.5 M Gdm HCl, hydrochloride
# T1 construct: C-terminal His-tagged SUMO hydrolase/protease Ulp (403–621)p (21) (27) was expressed from pET24d; His tag (C); made in house; host or cells: E. coli Rosetta (DE3) pLysS, vector pET24d
# T1 sequence (Q02724 403-621): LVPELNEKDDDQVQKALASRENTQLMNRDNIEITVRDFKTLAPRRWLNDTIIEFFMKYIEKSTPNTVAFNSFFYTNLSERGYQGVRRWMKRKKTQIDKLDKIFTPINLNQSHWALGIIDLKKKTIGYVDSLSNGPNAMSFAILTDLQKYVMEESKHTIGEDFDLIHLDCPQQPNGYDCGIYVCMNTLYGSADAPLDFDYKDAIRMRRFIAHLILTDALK
# Method: Ni-NTA purified His6SUMO-GFP was incubated with Ulp1 under the indicated conditions for one hour at room temperature unless indicated otherwise. Low molecular weight markers (LMW) are also provided.
# Ni-NTA purified His6SUMO-GFP was incubated with Ulp1 and 10 mM of various protease inhibitors for 1 hour at room temperature. Lane markers: Norm is addition of Ulp1 and N-ethymaleimide (NEM) to the substrate at the same time, Pre is the incubation of Ulp1 with NEM prior to the addition of substrate, +Ve is the absence of any inhibitor, −Ve is in the absence of Ulp1, lane 1 is with E-64, lane 2 is with EDTA, lane 3 is with leupeptin, lane 4 is with NEM, lane 5 is with pepstatin, lane 6 is with TLCK. Low molecular weight markers (LMW) are also provided.
# The effects of various additives/conditions and temperature upon the in vitro cleavage reaction were determined as follows: His6smt3MeGFP was expressed from pET24d in Rosetta (DE3) pLysS (Novagen). The recombinant protein was purified as before using Ni-NTA agarose (Qiagen) and then buffer exchanged into 20 mM Tris-HCl pH 8.0, 150 mM NaCl and 5 mM β-mercaptoethanol using a PD-10 column (AP Biotech). Cleavage reactions were performed with 100 ug of the purified protein, 0.5 ul of enzyme, the appropriate amount of a stock solution of additive to generate the final concentrations listed in Table 4, plus the exchange buffer up to a final volume of 200 ul. Reactions were incubated for 1 hour at 37° C. except for those at 4° C. were incubated for 3 hours. […] Generally, His tagged proteins are purified on nickel columns and eluted with imidazole.
# [2] = system: E. coli; assay: Soluble versus insoluble fraction of fusion proteins expressed in E. coli; type: cell-based
# Method: E. coli were harvested by mild centrifugation and washed once with PBS buffer. Cells were resuspended in 4 ml of PBS and ruptured by several pulses of sonication. Unbroken cells were removed by mild centrifugation (5 min at 1500×g) and supernatants were sonicated again to ensure complete cell lysis. An aliquot (5 μl) was mixed with 2% SDS to ensure that no viscosity is detected owing to lysis of unbroken cells. After ensuring that no unbroken cells remained in the lysate, insoluble material consisting of cell walls, inclusion bodies and membrane fragments was sedimented by centrifugation (18,000×g for 10 min). The supernatant was considered “Soluble fraction”.
# The pellets were washed from any remaining soluble proteins, lipids and peptidoglycan as follows. Pellets were resuspended in 600 μl of PBS and to the suspensions 600 μl of solution containing 3 M urea and 1% Tri ton X100 was added. The suspension was briefly vortexed and insoluble material was collected by centrifugation as above. […]
# Human nuclear receptor proteins, such as steroid receptors, contain ligand-binding domains. […] The ligand-binding domain of LXR was expressed as SUMO fusion in Rosetta plysS cell at 20° C. or 37° C. and the pattern of soluble and insoluble protein was analyzed. […] The original induced culture (I), supernatant from lysed cells (S) and resuspended pellet (P) were analyzed on 12% SDS-PAGE. […]
# [3] = system: E. coli; assay: GFP fluorescence in soluble fractions of E. coli; type: cell-based; conditions: 37° C., approx. 0.1 mg soluble protein, Ex 485 nm/Em 510 nm
# Method: GFP fluorescence was measured in soluble fractions (approx. 0.1 mg of soluble protein in a final volume of 40 μl) using Fluoroscan Accent FL fluorometer (LabSystems) with Excitation 485 nm/Emission 510 nm filter set with the exposure set to 40 sec. The data are presented in Arbitrary Units (AU).
# The design and construction of all the UBL E. coli expression vectors has been described above. The DNA sequences, accession numbers of the UBL-GFP fusion proteins, and translation frames are shown FIGS. 25–32. […] Un-fused GFP is generally poorly expressed in E. coli. […] Induced cells were broken by sonication and soluble proteins were analyzed on SDS-polyacrylamide gels. […] To determine if the fusion proteins were folded correctly, we determined the fluorescence properties of proteins in the soluble fraction.
# [4] = molecular target: T2, SUMO hydrolase Ulp1 (Saccharomyces cerevisiae, UniProt Q02724); assay: In vitro cleavage of purified SUMO fusion proteins by SUMO hydrolase Ulp1; type: biochemical, yeast
# T2 construct: C-terminal His-tagged SUMO hydrolase/protease Ulp (403–621)p (21) (27) was expressed from pET24d; His tag (C); made in house; host or cells: E. coli Rosetta (DE3) pLysS, vector pET24d
# T2 sequence (Q02724 403-621): T1 sequence (Q02724 403-621)
# [5] = protease inhibitors, 10 mM per FIG. 17 legend
compound,measurement,setting,value
Cc1ccc(S(=O)(=O)N[C@@H](CCCCN)C(=O)CCl)cc1.Cl [TLCK-HCl],Effect of protease inhibitor on Ulp1 hydrolase activity,[1]; [5],chymotrypsin-like specificity; no affect
same,Effect of protease inhibitor on Ulp1 hydrolase activity,"[1]; protease inhibitors, 10 mM per FIG. 17 legend, listed as TLCK",no effect
CCCCCCCCCCCCOS(=O)(=O)[O-].[Na+] [SDS],Effect on Ulp1 hydrolase activity,[1]; 0.01% SDS,highly active and 0.01% SDS blocks activity
CC(C)C[C@H](NC(=O)[C@H]1O[C@@H]1C(=O)O)C(=O)NCCCCN=C(N)N [E-64],Effect of protease inhibitor on Ulp1 hydrolase activity,[1]; [5],Cysteine protease inhibitor; no affect
Triton-X,Effect on Ulp1 hydrolase activity,[1]; up to 1% triton X 100,highly active
c1c[nH]cn1 [Imidazole],Effect on Ulp1 hydrolase activity,[1]; imidazole 0 to 300 mM,Ulp1 shows similar activity in the range of
same,Effect on Ulp1 hydrolase activity,"[1]; imidazole 0 to 300 mM, listed as imidazole",remarkably active
CC(C)CC(=O)N[C@H](C(=O)N[C@H](C(=O)N[C@@H](CC(C)C)[C@@H](O)CC(=O)N[C@@H](C)C(=O)N[C@@H](CC(C)C)[C@@H](O)CC(=O)O)C(C)C)C(C)C [Pepstatin] (Isovaleryl-VV[Sta]A[Sta]-OH),Effect of protease inhibitor on Ulp1 hydrolase activity,[1]; [5],no effect; also recorded: Aspartate protease inhibitor; no affect
CCN1C(=O)C=CC1=O [N-ethylmaleimide],Effect of protease inhibitor on Ulp1 hydrolase activity,"[1]; enzyme preincubated with inhibitor before addition of substrate, listed as N-ethymaleimide",active
"Cl.N=C(N)N [Gdm HCl, guanadinium hydrochloride]",Ulp1 activity remaining,[1],Ulp1 shows 50% activity in 0.5 M but is completely
same,Ulp1 activity remaining,[1]; listed as guanadinium hydrochloride,50%
same,Effect on Ulp1 hydrolase activity,[1]; 1 M Gdm HCl,inactive in 1 M concentrations
O=S(=O)(F)Cc1ccccc1 [PMSF],Effect of protease inhibitor on Ulp1 hydrolase activity,[1]; [5],no effect; also recorded: Serine protease inhibitor; no affect
SUMO-GFP: SUMO fused to N-terminus of GFP (SEQ ID NO: 5),Solubility of UBL-GFP fusion (soluble panel of stained gel),"[2]; 26° C. overnight, FIG. 4B",able to solubilize fused GFP
same,Solubility of UBL-GFP fusion (soluble panel of stained gel),"[2]; 37° C., FIG. 4A",able to solublize the GFP
same,GFP fluorescence of soluble fraction (correct folding),[3],able to fluoresce
same,In vitro cleavage by Ulp1 / SUMO hydrolase,[4]; purified fusion protein from E. coli,completely digested
NC(N)=O [Urea],Effect on Ulp1 hydrolase activity,"[1]; urea up to and including 2 M, listed as urea",did not effect the activity; also recorded: does not inhibit the hydrolase
CC(=O)N[C@@H](CC(C)C)C(=O)N[C@@H](CC(C)C)C(=O)N[C@H](C=O)CCCNC(=N)N [Leupeptin],Effect of protease inhibitor on Ulp1 hydrolase activity,[1]; [5],no effect; also recorded: like specificity; no affect
O=C(O)CN(CCN(CC(=O)O)CC(=O)O)CC(=O)O [EDTA],Effect of protease inhibitor on Ulp1 hydrolase activity,[1]; [5],no effect; also recorded: Metalloprotease inhibitor; no affect
"SUMO-β-galactosidase: SUMO fusion of E. coli β-galactosidase, a 110 KDa protein (SEQ ID NO: 31)",Share of protein cleaved by SUMO hydrolase,"[4]; 20 minutes, room temperature",100%
